Test results: patent US20240016784A1, “Y BOX BINDING PROTEIN 1 INHIBITORS” (Oregon Health & Science University, priority 2020, published 2024)

Columns and labels:
[1] = Liver microsomes metabolic profiling; assay type: in vitro ADME
Text: FIGS. 15A-15E. […] SU056 treatment at increasing concentrations dose not challenge the dietary behavior as reflected by change in body weight FIG. 15A) Mice and FIG. 15B) Rat. […] Liver microsomes were used for the purpose of metabolic profiling.

[2] = test system: KM12; assay: NCI-60 cell line panel; assay type: cell-based; details: Homo sapiens, 48 hours
Text: (§1) FIG. 17: Assay of SU056 in NCI-60 cell line panel.

[3] = test system: MOLT-4; assay: NCI-60 cell line panel; assay type: cell-based; details: Homo sapiens, 48 hours
Text: as §1

[4] = test system: SF-268; assay: NCI-60 cell line panel; assay type: cell-based; details: Homo sapiens, 48 hours
Text: as §1

[5] = test system: OVCAR-3; assay: NCI-60 cell line panel; assay type: cell-based; details: Homo sapiens, 48 hours
Text: as §1

[6] = test system: UO-31; assay: NCI-60 cell line panel; assay type: cell-based; details: Homo sapiens, 48 hours
Text: as §1

[7] = test system: SN12C; assay: NCI-60 cell line panel; assay type: cell-based; details: Homo sapiens, 48 hours
Text: as §1

[8] = test system: UACC-62; assay: NCI-60 cell line panel; assay type: cell-based; details: Homo sapiens, 48 hours
Text: as §1

[9] = test system: NCI-H226; assay: NCI-60 cell line panel; assay type: cell-based; details: Homo sapiens, 48 hours
Text: as §1

[10] = test system: U251; assay: NCI-60 cell line panel; assay type: cell-based; details: Homo sapiens, U-251, 48 hours
Text: as §1

[11] = test system: CCRF-CEM; assay: NCI-60 cell line panel; assay type: cell-based; details: Homo sapiens, 48 hours
Text: as §1

[12] = test system: SW-620; assay: NCI-60 cell line panel; assay type: cell-based; details: Homo sapiens, 48 hours
Text: as §1

[13] = test system: T-47D; assay: NCI-60 cell line panel; assay type: cell-based; details: Homo sapiens, T47D, 48 hours
Text: as §1

[14] = test system: NCI-H23; assay: NCI-60 cell line panel; assay type: cell-based; details: Homo sapiens, 48 hours
Text: as §1

[15] = test system: OVCAR-4; assay: NCI-60 cell line panel; assay type: cell-based; details: Homo sapiens, 48 hours
Text: as §1

[16] = test system: CAKI-1; assay: NCI-60 cell line panel; assay type: cell-based; details: Homo sapiens, 48 hours
Text: as §1

[17] = test system: NCI-H322M; assay: NCI-60 cell line panel; assay type: cell-based; details: Homo sapiens, 48 hours
Text: as §1

[18] = test system: BT-549; assay: NCI-60 cell line panel; assay type: cell-based; details: Homo sapiens, 48 hours
Text: as §1

[19] = test system: NCI-H522; assay: NCI-60 cell line panel; assay type: cell-based; details: Homo sapiens, 48 hours
Text: as §1

[20] = test system: MDA-MB-231/ATCC; assay: NCI-60 cell line panel; assay type: cell-based; details: Homo sapiens, 48 hours
Text: as §1

[21] = test system: COLO 205; assay: NCI-60 cell line panel; assay type: cell-based; details: Homo sapiens, 48 hours
Text: as §1

[22] = test system: A498; assay: NCI-60 cell line panel; assay type: cell-based; details: Homo sapiens, 48 hours
Text: as §1

[23] = test system: MDA-MB-468; assay: NCI-60 cell line panel; assay type: cell-based; details: Homo sapiens, 48 hours
Text: as §1

[24] = test system: HOP-92; assay: NCI-60 cell line panel; assay type: cell-based; details: Homo sapiens, 48 hours
Text: as §1

[25] = test system: OVCAR8 YBX1-shRNA1 cells; assay: Cell viability assay, transduced OVCAR8 cells; details: Homo sapiens, OVCAR-8, read-out: IC50 (cell viability)
Text: To check the dependency of SU056 activity on YB-1 expression, we also tested OVCAR8 cells transfected with YB-1 knockdown using transduction of lentiviral shRNA vectors. […] Furthermore, we also performed a cell viability assay using knockdown cells to calculate IC50 values.
Scrambled control (SC), YBX1 knockdown (1 & 2) and mCherry-YBX1 OVCAR8 cell lines were created using lentiviral based transduction and selected using puromycin resistance followed by cell shorting.
Cell viability assay: Cell viability was assessed using the standard MTT assay protocol. In brief, 5,000 cells were plated in each well of 96 well plates (Corning-Costar, #3598) and allowed to attach for 24 h. Cells were treated with a respective concentration of compounds for respective time points. A stock solution of each compound was prepared in DMSO. DMSO concentration was kept constant and maintained below 0.1%. After each incubation, 50 μL of 0.5 mg/ml MTT solution prepared in 1×PBS was added to each well followed by 1 h incubation at 37° C. and 5% CO2. MTT solution and media were then removed, and MTT formazan crystals were dissolved in 100 μL of DMSO per well. Absorbance at 570 nm for each well was recorded using a multimode plate reader to quantitate MTT crystallization. Each absorbance value was normalized to controls and converted into percent cell viability. […]

[26] = test system: MDA-MB-231, MDA-MB-468 and SUT1151-PDX xenografts; assay: Tumor xenografts of TNBC models; assay type: in vivo, Mice; details: SU056 50 mg/kg, oral gavage
Procedure: FIGS. 13A-13I. […] Mice were subcutaneously injected with MDA-MB-231 (2×10^6 cells), MDA-MB-468 (5×10^6 cells) and patient derived xenograft SUT1151-PDX (2×10^6 cells) and drug treatment started when tumor reached 100 mm^3. Mice were given either vehicle (40% PEG in saline) or SU056 (50 mg/kg) through oral route using oral gavage. FIG. 13A) Tumor volume (MDA-MB-231) as a function of time. FIG. 13B) Tumor weight (MDA-MB-231) at the end of the study. FIG. 13C) Body weight (MDA-MB-231) as a function of time. FIG. 13D) Tumor volume (MDA-MB-468) as a function of time. FIG. 13E) Tumor weight (MDA-MB-468) at the end of the study. FIG. 13F) Body weight (MDA-MB-468) as a function of time. FIG. 13G) Representative images of tumor (MDA-MB-231) at the end of study. FIG. 13H) Representative images of tumor (MDA-MB-468) at the end of study. FIG. 13I) Tumor volume (SUT1151-PDX) as a function of time. FIG. 13B) Tumor weight (SUT1151-PDX) at the end of the study. FIG. 13C) Body weight (SUT1151-PDX) as a function of time.

O=C1OCC2=C1C(c1cccc(F)c1)c1cc3c(cc1N2CCO)OCO3 (centres unmarked) [SU056, 9-(3-fluorophenyl)-5-(2-hydroxyethyl)-6,9-dihydro-[1,3]dioxolo[4,5-g]furo[3,4-b]quinolin-8(5H)-one]
half-life [1]: 40 min | IC50 [2]: 1.48 µM | IC50 [3]: 3.02 µM | IC50 [4]: 3.2 µM | IC50 [5]: 1.27 µM | IC50 [6]: 2.88 µM | IC50 [7]: 3.05 µM | IC50 [8]: 2.25 µM | IC50 [9]: 50 µM | IC50 [10]: 2.5 µM | IC50 [11]: 2.37 µM | IC50 [12]: 1.65 µM | IC50 [13]: 2.18 µM | IC50 [14]: 3.96 µM | IC50 [15]: 46.8 µM | IC50 [16]: 1.24 µM | IC50 [17]: 4.01 µM | IC50 [18]: 1.46 µM | IC50 [19]: 2.59 µM | IC50 [20]: 3.09 µM | IC50 [21]: 1.46 µM | IC50 [22]: 1.11 µM | IC50 [23]: 1.12 µM | IC50 [24]: 3.1 µM | IC50 [25]: 15.8 µM | tumor xenograft growth, TNBC models [26]: inhibit tumor xenograft of TNBC models
